Data as given in ChEMBL document CHEMBL5365501, “Brain-penetrant cyanoindane and cyanotetralin inhibitors of G2019S-LRRK2 kinase activity” (Bioorg Med Chem Lett, 2023).

How the values were obtained:
[1] = target: T1, Leucine-rich repeat serine/threonine-protein kinase 2 (Homo sapiens, UniProt Q5S007, G2019S); assay: Inhibition of LRRK2 G2019S mutant (unknown origin) using LRRKtide as substrate pre-incubated for 15 min and measured after 1 hrs by HTRF assay
[2] = Stability in human liver microsomes assessed as half life at 0.5 uM incubated up to 45 min in the presence of NADPH regenerating system by LC MS/MS analysis; assay type: ADME, Microsome
MDR1 (P-gp) = assay: Efflux ratio of permeability across basolateral to apical side over apical to basolateral side in dog MDCKII-MDR1 cells; assay type: ADME, cell-based, Canis lupus familiaris; details: MDCK-MDR1
[3] = Stability in rat liver microsomes assessed as half life at 0.5 uM incubated up to 45 min in the presence of NADPH regenerating system by LC MS/MS analysis; assay type: ADME, Microsome
[4] = target: T1, Leucine-rich repeat serine/threonine-protein kinase 2; assay: Inhibition of human LRRK2 G2019S mutant phosphorylation at S1292 in human HEK293 cells incubated for 2 hrs; assay type: cell-based
[5] = target: T1, Leucine-rich repeat serine/threonine-protein kinase 2; assay: Inhibition of phosphorylated human LRRK2 G2019S mutant at S935 in human HEK293 cells incubated for 2 hrs; assay type: cell-based

T1 sequence (Q5S007 whole entry G2019S): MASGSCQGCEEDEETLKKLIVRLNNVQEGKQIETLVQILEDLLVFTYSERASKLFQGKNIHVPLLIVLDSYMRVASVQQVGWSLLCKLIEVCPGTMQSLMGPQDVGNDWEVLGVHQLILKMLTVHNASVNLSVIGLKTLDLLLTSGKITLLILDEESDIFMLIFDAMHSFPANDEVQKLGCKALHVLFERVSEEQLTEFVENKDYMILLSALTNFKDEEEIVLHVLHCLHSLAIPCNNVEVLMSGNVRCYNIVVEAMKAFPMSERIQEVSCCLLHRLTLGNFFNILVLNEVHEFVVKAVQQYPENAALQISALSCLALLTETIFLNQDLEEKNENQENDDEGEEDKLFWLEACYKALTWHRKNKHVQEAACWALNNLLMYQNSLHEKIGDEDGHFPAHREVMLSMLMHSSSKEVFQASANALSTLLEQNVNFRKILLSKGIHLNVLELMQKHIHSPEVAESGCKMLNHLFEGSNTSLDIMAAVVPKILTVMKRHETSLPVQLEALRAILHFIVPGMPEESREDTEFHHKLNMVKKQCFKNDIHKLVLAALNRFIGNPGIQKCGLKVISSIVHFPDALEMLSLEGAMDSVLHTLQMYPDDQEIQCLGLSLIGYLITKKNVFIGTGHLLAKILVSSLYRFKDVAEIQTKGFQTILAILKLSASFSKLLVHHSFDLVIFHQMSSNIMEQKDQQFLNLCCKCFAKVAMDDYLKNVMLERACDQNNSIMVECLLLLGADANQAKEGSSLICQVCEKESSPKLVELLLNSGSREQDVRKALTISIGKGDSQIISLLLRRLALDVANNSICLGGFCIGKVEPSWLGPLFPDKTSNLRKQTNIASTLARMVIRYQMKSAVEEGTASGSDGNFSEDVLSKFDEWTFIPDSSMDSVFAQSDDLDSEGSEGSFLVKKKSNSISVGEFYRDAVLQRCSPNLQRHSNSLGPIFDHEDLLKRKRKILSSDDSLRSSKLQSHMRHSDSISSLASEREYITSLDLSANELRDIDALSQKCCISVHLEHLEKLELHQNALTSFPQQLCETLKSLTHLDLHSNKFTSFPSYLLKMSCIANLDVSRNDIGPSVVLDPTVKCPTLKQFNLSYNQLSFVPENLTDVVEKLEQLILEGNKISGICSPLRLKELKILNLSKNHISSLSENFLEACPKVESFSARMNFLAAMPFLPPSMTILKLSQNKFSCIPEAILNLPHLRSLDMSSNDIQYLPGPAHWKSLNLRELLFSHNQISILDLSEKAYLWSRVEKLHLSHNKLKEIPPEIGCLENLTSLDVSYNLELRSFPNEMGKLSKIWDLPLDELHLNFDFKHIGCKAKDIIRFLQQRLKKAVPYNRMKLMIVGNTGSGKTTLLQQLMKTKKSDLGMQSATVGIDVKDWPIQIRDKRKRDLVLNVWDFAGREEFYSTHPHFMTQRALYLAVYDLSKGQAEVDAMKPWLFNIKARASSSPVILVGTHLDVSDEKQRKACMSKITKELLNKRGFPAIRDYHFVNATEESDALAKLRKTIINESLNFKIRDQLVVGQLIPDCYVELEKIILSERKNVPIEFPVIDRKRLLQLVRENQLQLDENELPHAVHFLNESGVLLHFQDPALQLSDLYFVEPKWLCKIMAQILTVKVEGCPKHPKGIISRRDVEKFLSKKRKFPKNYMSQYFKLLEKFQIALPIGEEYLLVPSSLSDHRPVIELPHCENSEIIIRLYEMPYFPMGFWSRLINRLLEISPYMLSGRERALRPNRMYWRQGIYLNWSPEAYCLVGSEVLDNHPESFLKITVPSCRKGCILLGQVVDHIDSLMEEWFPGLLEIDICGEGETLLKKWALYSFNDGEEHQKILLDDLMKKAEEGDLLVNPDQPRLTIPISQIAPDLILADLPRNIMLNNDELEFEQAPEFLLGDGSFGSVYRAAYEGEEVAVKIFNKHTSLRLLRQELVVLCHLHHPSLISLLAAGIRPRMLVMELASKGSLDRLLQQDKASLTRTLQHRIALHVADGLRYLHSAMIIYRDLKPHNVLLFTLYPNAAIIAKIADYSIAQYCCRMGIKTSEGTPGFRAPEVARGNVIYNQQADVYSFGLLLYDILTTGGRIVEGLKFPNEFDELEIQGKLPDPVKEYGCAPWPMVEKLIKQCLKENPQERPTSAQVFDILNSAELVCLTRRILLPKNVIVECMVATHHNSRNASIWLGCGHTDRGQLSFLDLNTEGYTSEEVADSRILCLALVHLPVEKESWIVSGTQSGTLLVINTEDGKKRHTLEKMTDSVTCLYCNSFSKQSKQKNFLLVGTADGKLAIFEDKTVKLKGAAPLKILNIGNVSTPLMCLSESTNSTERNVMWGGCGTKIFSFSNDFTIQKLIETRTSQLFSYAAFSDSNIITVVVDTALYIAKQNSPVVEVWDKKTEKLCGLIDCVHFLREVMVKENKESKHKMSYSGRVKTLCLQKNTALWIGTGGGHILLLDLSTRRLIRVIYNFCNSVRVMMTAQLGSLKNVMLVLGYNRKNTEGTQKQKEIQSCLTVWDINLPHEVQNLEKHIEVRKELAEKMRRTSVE

| SMILES | IC50 [1] [nM] | other results |
| --- | --- | --- |
| CC1=C(C(=O)Nc2ccc3[nH]nc(-c4ccccc4)c3c2)C(C)(C)n2nnnc2N1C | 3 | – |
| COCc1ccc(C(=O)Nc2ccc3[nH]nc(-c4ccoc4)c3c2)cc1 | 98 | – |
| Cc1n[nH]c2ccc(O[C@H]3CCCc4cc(C#N)ccc43)cc12 | 2.8 | half-life at 0.5 µM [2]: 35 min; efflux ratio (MDR1 (P-gp)): 1.3; half-life at 0.5 µM [3]: 18 min; IC50 [4]: 62 nM; IC50 [5]: 137 nM |
| N#Cc1ccc2c(c1)CCC[C@@H]2Oc1ccc2[nH]nc(-c3ccnc(N4CCOCC4)c3)c2c1 | 1.4 | – |
| N#Cc1ccc(C(=O)Nc2ccc3[nH]nc(-c4ccoc4)c3c2)cc1 | 41 | efflux ratio (MDR1 (P-gp)): 1.9 |
| O=C(Nc1ccc2[nH]nc(-c3ccoc3)c2c1)c1nc2cnccc2s1 | 74 | – |
| N#Cc1ccc2c(c1)CC[C@H]2Nc1ccc2[nH]nc(-c3ccoc3)c2c1 | 63 | – |
| Cc1n[nH]c2ccc(O[C@@H]3CCc4cc(C#N)ccc43)cc12 | 62 | – |
| CC1=C(C(=O)Nc2ccc3[nH]ncc3c2)Cn2nnnc2N1C | 35 | – |
| CN(C)Cc1ccc(C(=O)Nc2ccc3[nH]nc(-c4ccoc4)c3c2)cc1 | 250 | – |
| N#Cc1ccc(C(=O)Nc2ccc3[nH]nc(C4CC4)c3c2)cc1 | 790 | – |
| N#Cc1ccc2c(c1)CCN(c1ccc3[nH]nc(C4CC4)c3c1)C2=O | 5500 | – |
| N#Cc1ccc2c(c1)CN(c1ccc3[nH]nc(C4CC4)c3c1)C2=O | 615 | – |
| N#Cc1ccc2c(c1)C(=O)N(c1ccc3[nH]nc(C4CC4)c3c1)C2=O | > 7600 | – |
| N#Cc1ccc2c(c1)CCC[C@@H]2Oc1ccc2[nH]nc(-c3cnco3)c2c1 | < 0.2 | half-life at 0.5 µM [2]: 28 min; efflux ratio (MDR1 (P-gp)): 1.7; half-life at 0.5 µM [3]: 42 min; IC50 [4]: 3.5 nM; IC50 [5]: 6.2 nM |
| Cn1ncc2cc(C(=O)Nc3ccc4[nH]nc(-c5ccoc5)c4c3)ccc21 | 13 | efflux ratio (MDR1 (P-gp)): 9.2 |
| N#Cc1ccc2c(c1)CC[C@@H]2Nc1ccc2[nH]nc(-c3ccoc3)c2c1 | 11 | half-life at 0.5 µM [2]: 25 min; efflux ratio (MDR1 (P-gp)): 1.8; half-life at 0.5 µM [3]: 54 min; IC50 [4]: 57 nM; IC50 [5]: 96 nM |
| N#Cc1ccc2c(c1)CCC[C@@H]2Nc1ccc2[nH]nc(-c3cnco3)c2c1 | 0.9 | – |
| Cc1n[nH]c2ccc(O[C@H]3CCc4cc(C#N)ccc43)cc12 | 14 | – |
| CS(=O)(=O)c1ccc(C(=O)Nc2ccc3[nH]nc(-c4ccoc4)c3c2)cc1 | 49 | – |
| N#Cc1ccc2c(c1)CC[C@@H]2Oc1ccc2[nH]nc(-c3cnco3)c2c1 | 0.4 | half-life at 0.5 µM [2]: 61 min; efflux ratio (MDR1 (P-gp)): 2.2; half-life at 0.5 µM [3]: 53 min; IC50 [4]: 8.3 nM; IC50 [5]: 27 nM |
| O=C(Nc1ccc2[nH]nc(-c3ccoc3)c2c1)c1cnc2cnccc2c1 | 173 | – |
| N#Cc1ccc2c(c1)[C@@H](Nc1ccc3[nH]nc(Br)c3c1)CCC2 | 14 | – |
